Test results as given in US6814319B2, “Laboratory scale milling process” (Pharmacia & Upjohn Company, priority 2000, dated 2004).

How the values were obtained:
Type in all cases: physicochemical
[1] = D50 particle size of milled drug, turbidimetry; conditions: size detection by turbidimetry; after magnetic stir-bar milling, parameters of Table 2
Description: (§1) Valdecoxib, linezolid, phenytoin, griseofulvin and carbamazepine were milled according to the general procedure described for celecoxib in Example 1.

[2] = D50 particle size of milled drug, X-ray diffraction; conditions: size detection by X-ray diffraction; after magnetic stir-bar milling, parameters of Table 2
Description: as §1

[3] = D50 particle size of milled drug, optical microscopy; conditions: size detection by optical microscopy; after magnetic stir-bar milling, parameters of Table 2
Description: as §1

Row | SMILES | D50 (nm) [1] | D50 (nm) [2] | D50 (nm) [3]
1 | COC1=CC(=O)C[C@@H](C)[C@]12Oc1c(Cl)c(OC)cc(OC)c1C2=O [Griseofulvin] | 250^1 nm | 160^3 nm | 
2 | CC(=O)NC[C@H]1CN(c2ccc(N3CCOCC3)c(F)c2)C(=O)O1 [Linezolid] | 1900^1 nm |  | 1000^2 nm
3 | NC(=O)N1c2ccccc2C=Cc2ccccc21 [Carbamazepine] | 2500^1 nm | 2600^3 nm | 

Continued, values first:

Row | D50 (nm) [1] | D50 (nm) [2] | D50 (nm) [3] | SMILES
4 | 460^1 nm |  |  | Cc1onc(-c2ccccc2)c1-c1ccc(S(N)(=O)=O)cc1 [Valdecoxib]
5 | 200^1 nm | 130^3 nm |  | O=C1NC(=O)C(c2ccccc2)(c2ccccc2)N1 [Phenytoin]
